Experimental data: patent US8304252B2, “Stereoselective bioconversion of aliphatic dinitriles into cyano carboxylic acids” (Pfizer Inc., priority 2004, dated 2012)
Values after ≈ are worked out from the molar mass of the structure shown.

Experiment: physchem
Type: physicochemical
Settings: 30 °C, pH 7.5, aqueous buffer
Procedure: This process can be carried out in reaction mixtures comprised of two phases: an aqueous phase, which initially contains enzyme and dissolved 2-isobutyl-succinonitrile, and an organic phase, which consist mainly of racemic 2-isobutyl-succinonitrile. Two-phase reaction mixtures are prepared by adding 2-isobutyl-succinonitrile to an aqueous solution of enzyme and buffer agents such that the amount of 2-isobutyl-succinonitrile added exceeds it aqueous solubility limit. The aqueous solubility limit of 2-isobutyl-succinonitrile in 50 mM potassium phosphate (30° C., pH 7.5) is approximately 0.06M. Over the course of the reaction, (S)-3-cyano-5-methylhexanoic acid ammonium salt is formed and increases in concentration in the aqueous phase, while the organic phase decreases in volume and becomes enriched in (R)-2-isobutyl-succinonitrile. Alternately, this process can also be carried out in reaction mixtures comprised of three phases: an aqueous phase, which initially contains dissolved 2-isobutyl-succinonitrile, an organic phase, which consists mainly of racemic 2-isobutyl-succinonitrile, and a solid phase, which consists of enzyme immobilized on an insoluble support. Three-phase reaction mixtures are prepared by the procedure described for two-phase reaction mixture except that an enzyme immobilized on an insoluble support is used in place of an un-immobilized enzyme.

Compound: CC(C)CC(C#N)CC#N (racemic) [2-isobutyl-succinonitrile]
- solubility: ~60 mM (≈ 8170 µg/mL)
